The data set concerns mouse liver microsomes, LC/MS/MS parent remaining, 60 min. Description: mouse hepatic microsomal parent compound depletion – biochemical, LC/MS/MS, with and without NADPH, ADME assay, late-stage follow-up (AID 1940). The settings on record: at 1 µM, stronger effect = lower value.

Consider one molecule from PubChem BioAssay AID1940 (Sanford-Burnham Center for Chemical Genomics, 2009).

Take `CC1Cc2cc(S(=O)(=O)N3CCN(c4ccc(Cl)cc4)CC3)ccc2N1C(=O)C1CC1` (configuration not stated): the percent remaining is 0.56%. For the same molecule, where the note is “measured here: no NADPH control”, the percent remaining was 61.2%.
